Test results reported in patent US8748417B2, “Amino-pyrrolidine-azetidine diamides as monoacylglycerol lipase inhibitors” (Janssen Pharmaceutica, NV, priority 2010, dated 2014).

What was measured:
[1] = target: T1, purified wild type MGL (wt-MGLL 6H-11-313) (Homo sapiens, UniProt Q99685); assay: MGL enzyme activity assay (4MU-B cleavage), wild type MGL; type: biochemical; details: wild type MGL 5 nM, 4MU-B 10 μM, 37° C.; read-out: MGL wild type inh IC50
T1 construct: purified wild type MGL (wt-MGLL 6H-11-313)
T1 sequence (Q99685 1-303): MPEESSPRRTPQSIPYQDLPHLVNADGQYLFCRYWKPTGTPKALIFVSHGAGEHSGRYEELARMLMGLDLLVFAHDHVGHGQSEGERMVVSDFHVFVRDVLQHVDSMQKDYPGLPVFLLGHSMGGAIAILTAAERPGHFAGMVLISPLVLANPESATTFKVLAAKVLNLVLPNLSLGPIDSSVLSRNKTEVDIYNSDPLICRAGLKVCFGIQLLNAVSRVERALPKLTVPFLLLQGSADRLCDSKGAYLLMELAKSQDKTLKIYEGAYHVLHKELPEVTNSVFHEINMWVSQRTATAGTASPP
Experimental: All rate-based assays were performed in black 384-well polypropylene PCR microplates (Abgene) in a total volume of 30 μL. Substrate 4-methylumbelliferyl butyrate (4MU-B; Sigma) and either purified mutant MGL (mut-MGLL 11-313 L179S L186S) or purified wild type MGL (wt-MGLL 6H-11-313) were diluted separately into 20 mM PIPES buffer (pH=7.0), containing 150 mM NaCl and 0.001% Tween 20. Compounds of Formula (I) were pre-dispensed (50 nL) into the assay plate using a Cartesian Hummingbird prior to adding 4MU-B (25 μL of 1.2× solution to a final concentration of 10 μM) followed by enzyme (5 μL of a 6× solution to a final concentration of 5 nM) to initiate the reaction. Final compound concentrations ranged from 17 to 0.0003 μM. The fluorescence change due to 4MU-B cleavage was monitored with excitation and emission wavelengths of 335 and 440 nm, respectively, and a bandwidth of 10 nm (Safire^2, Tecan) at 37° C. for 5 min.
The IC50 values for the following compounds were determined using Microsoft Office Excel from a fit of the equation to the concentration-response plot of the fractional activity as a function of inhibitor concentration.

[2] = test system: MGL (rat brain homogenate); assay: 2-AG accumulation assay in rat brain homogenate; type: biochemical; details: compound 1 μM, percent of vehicle 2-AG accumulation
Experimental: After a 15-min incubation time at 37° C., CaCl2 (final concentration=10 mM) was added and then incubated for 15 min at 37° C. in a total volume of 5 mL. The reactions were stopped with 6 mL organic solvent extraction solution of 2:1 chloroform/methanol. Accumulated 2-AG in the organic phase was measured by a HPLC/MS method, according to the following equation: percent vehicle=(2-AG accumulation in the presence of compound/2-AG accumulation in vehicle)×100.

Row | Structure (SMILES) | IC50 [1] [nM] | Rat Brain 2AG % VehCntrl (%) @1 μM [2] [%]
1 | O=C(c1ccc(C(O)c2ccc(C(F)(F)F)cc2)cc1)N1CC(N[C@H]2CCN(C(=O)c3ccccc3)C2)C1 (stereo partly drawn) [Cpd 67] | 9.7 | 928
2 | CC(C)=Cc1c(C(=O)N2CC(N[C@H]3CCN(C(=O)c4ccccc4)C3)C2)sc2cc(C(F)(F)F)ccc12 [Cpd 76, (3S)-N-(1-{[3-(2-Methylprop-1-en-1-yl)-6-(trifluoromethyl)-1-benzothiophen-2-yl]carbonyl}azetidin-3-yl)-1-(phenylcarbonyl)pyrrolidin-3-amine] | 61.8 | 522
3 | O=C(c1ccc(Cc2ccc(C(F)(F)F)cc2)cc1)N1CC(N[C@H]2CCN(C(=O)c3ccccc3)C2)C1 [Cpd 77, (S)-(3-((1-Benzoylpyrrolidin-3-yl)amino)azetidin-1-yl)(4-(4-(trifluoromethyl)benzyl)phenyl)methanone] | < 5 | 506
4 | Cc1c(C(=O)N2CC(N[C@H]3CCN(C(=O)c4ccccc4)C3)C2)sc2cc(C(F)(F)F)ccc12 [Cpd 80, (3S)-N-(1-{[3-Methyl-6-(trifluoromethyl)-1-benzothiophen-2-yl]carbonyl}azetidin-3-yl)-1-(phenylcarbonyl)pyrrolidin-3-amine] | 22.6 | 174
5 | Cc1c(C(=O)N2CC(N[C@H]3CCN(C(=O)c4nccs4)C3)C2)sc2ccc(Cl)cc12 [Cpd 84, (3S)-N-{1-[(5-Chloro-3-methyl-1-benzothiophen-2-yl)carbonyl]azetidin-3-yl}-1-(1,3-thiazol-2-ylcarbonyl)pyrrolidin-3-amine] | < 5 | 433
6 | Cc1c(C(=O)N2CC(N[C@H]3CCN(C(=O)c4cscn4)C3)C2)sc2ccc(Cl)cc12 [Cpd 85, (3S)-N-{1-[(5-Chloro-3-methyl-1-benzothiophen-2-yl)carbonyl]azetidin-3-yl}-1-(1,3-thiazol-4-ylcarbonyl)pyrrolidin-3-amine] | 48.2 | 335
7 | Cc1c(C(=O)N2CC(N[C@H]3CCN(C(=O)c4nccs4)C3)C2)sc2cc(F)ccc12 [Cpd 87, (3S)-N-{1-[(6-Fluoro-3-methyl-1-benzothiophen-2-yl)carbonyl]azetidin-3-yl}-1-(1,3-thiazol-2-ylcarbonyl)pyrrolidin-3-amine] | 34.1 | 385
8 | Cc1c(C(=O)N2CC(N[C@H]3CCN(C(=O)c4nccs4)C3)C2)sc2ccc(-c3cccc(C(F)(F)F)c3)cc12 [Cpd 90, (3S)-N-[1-({3-Methyl-5-[3-(trifluoromethyl)phenyl]-1-benzothiophen-2-yl}carbonyl)azetidin-3-yl]-1-(1,3-thiazol-2-ylcarbonyl)pyrrolidin-3-amine] | < 5 | 1130
9 | Cc1c(C(=O)N2CC(N[C@H]3CCN(C(=O)c4nccs4)C3)C2)sc2ccc(-c3ccccc3)cc12 [Cpd 92, (3S)-N-{1-[(3-Methyl-5-phenyl-1-benzothiophen-2-yl)carbonyl]azetidin-3-yl}-1-(1,3-thiazol-2-ylcarbonyl)pyrrolidin-3-amine] | < 5 | 624
10 | Cc1c(C(=O)N2CC(N[C@H]3CCN(C(=O)c4ccccc4)C3)C2)sc2ccc(-c3cccc(F)c3)cc12 [Cpd 93, (3S)-N-(1-{[5-(3-Fluorophenyl)-3-methyl-1-benzothiophen-2-yl]carbonyl}azetidin-3-yl)-1-(phenylcarbonyl)pyrrolidin-3-amine] | < 5 | 963
11 | Cc1c(C(=O)N2CC(N[C@H]3CCN(C(=O)c4ccccc4)C3)C2)sc2ccc(-c3ccc(F)cc3)cc12 [Cpd 94, (3S)-N-(1-{[5-(4-Fluorophenyl)-3-methyl-1-benzothiophen-2-yl]carbonyl}azetidin-3-yl)-1-(phenylcarbonyl)pyrrolidin-3-amine] | < 5 | 445
12 | O=C(c1cc2ccc(-c3cccc(C(F)(F)F)c3)cc2s1)N1CC(N[C@H]2CCN(C(=O)c3nccs3)C2)C1 [Cpd 99, (3S)-1-(1,3-Thiazol-2-ylcarbonyl)-N-[1-({6-[3-(trifluoromethyl)phenyl]-1-benzothiophen-2-yl}carbonyl)azetidin-3-yl]pyrrolidin-3-amine] | < 5 | 644
13 | O=C(c1cscn1)N1CC[C@H](NC2CN(C(=O)c3cc4ccc(-c5cccc(C(F)(F)F)c5)cc4s3)C2)C1 [Cpd 100, (3S)-1-(1,3-Thiazol-4-ylcarbonyl)-N-[1-({6-[3-(trifluoromethyl)phenyl]-1-benzothiophen-2-yl}carbonyl)azetidin-3-yl]pyrrolidin-3-amine] | < 5 | 546
14 | O=C(c1ccc2c(-c3ccc(C(F)(F)F)cc3)c[nH]c2c1)N1CC(N[C@H]2CCN(C(=O)c3ccccc3)C2)C1 [Cpd 101, (3S)-1-(Phenylcarbonyl)-N-[1-({3-[4-(trifluoromethyl)phenyl]-1H-indol-6-yl}carbonyl)azetidin-3-yl]pyrrolidin-3-amine] | 44 | 141
15 | O=C(c1ccc2c(-c3ccc(C(F)(F)F)cc3)c[nH]c2c1)N1CC(N[C@H]2CCN(C(=O)c3nccs3)C2)C1 [Cpd 104, (3S)-1-(1,3-Thiazol-2-ylcarbonyl)-N-[1-({3-[4-(trifluoromethyl)phenyl]-1H-indol-6-yl}carbonyl)azetidin-3-yl]pyrrolidin-3-amine] | 22.2 | 195
16 | O=C(c1ccc2c(-c3cccc(C(F)(F)F)c3)c[nH]c2c1)N1CC(N[C@H]2CCN(C(=O)c3cscn3)C2)C1 [Cpd 106, (3S)-1-(1,3-Thiazol-4-ylcarbonyl)-N-[1-({3-[3-(trifluoromethyl)phenyl]-1H-indol-6-yl}carbonyl)azetidin-3-yl]pyrrolidin-3-amine] | < 5 | 389
17 | O=C(c1ccc(-c2cccc(C(F)(F)F)c2)cc1)N1CC(N[C@H]2CCN(C(=O)c3nccs3)C2)C1 [Cpd 113, (3S)-1-(1,3-Thiazol-2-ylcarbonyl)-N-(1-{[3′-(trifluoromethyl)biphenyl-4-yl]carbonyl}azetidin-3-yl)pyrrolidin-3-amine] | < 5 | 832
18 | O=C(c1ccc(-c2ccc(C(F)(F)F)cc2)cc1)N1CC(N[C@H]2CCN(C(=O)c3nccs3)C2)C1 [Cpd 115, (3S)-1-(1,3-Thiazol-2-ylcarbonyl)-N-(1-{[4′-(trifluoromethyl)biphenyl-4-yl]carbonyl}azetidin-3-yl)pyrrolidin-3-amine] | 10 | 310
19 | O=C(c1nccs1)N1CC[C@H](NC2CN(C(=O)c3ccc(-c4cccc(C(F)(F)F)c4)cc3F)C2)C1 [Cpd 116, (3S)-N-(1-{[3-Fluoro-3′-(trifluoromethyl)biphenyl-4-yl]carbonyl}azetidin-3-yl)-1-(1,3-thiazol-2-ylcarbonyl)pyrrolidin-3-amine] | < 5 | 733
20 | Cn1nc(-c2ccc(F)cc2)c2cc(C(=O)N3CC(N[C@H]4CCN(C(=O)c5ccccc5)C4)C3)ccc21 [Cpd 211, (3S)-N-(1-{[3-(4-Fluorophenyl)-1-methyl-1H-indazol-5-yl]carbonyl}azetidin-3-yl)-1-(phenylcarbonyl)pyrrolidin-3-amine] | 943 | –
